Data from US20240158446A1, “CYCLIC COMPOUND HAVING SELECTIVE INHIBITORY ACTION ON KRAS OVER HRAS AND NRAS” (CHUGAI SEIYAKU KABUSHIKI KAISHA, priority 2021, published 2024).
Where two headings read alike, the source gives them in different places. Where a SMILES comes first, the peptide text is derived from it. Bridges are numbered along the chain shown (N, C = ends). [ ]: non-standard residue; d: D form. The star is where a group is joined. hPhe(3,5-F2-4-CF3) = N[C@@H](CCc1cc(F)c(C(F)(F)F)c(F)c1)C(=O)O; NPrPhe(4-CF3) = CCCN[C@@H](Cc1ccc(C(F)(F)F)cc1)C(=O)O; NMeGly(cPent) = CN[C@H](C(=O)O)C1CCCC1; NMeD = CN[C@@H](CC(=O)O)C(=O)O; NMeL = CN[C@@H](CC(C)C)C(=O)O; αMeS = C[C@](N)(CO)C(=O)O; Morpholide = C1CN(*)CCO1; Aze = O=C(O)[C@@H]1CCN1; Sar = CNCC(=O)O

What was measured:
[1] = target: GDP-bound NRAS wild-type protein (Homo sapiens, UniProt P01111); experiment: Binding to NRAS by surface plasmon resonance (SPR), Single Cycle Kinetics; details: for NRAS/KRAS (ratio of KD value with respect to NRAS to KD value with respect to KRAS) / NRAS/KRAS (ratio of KD value for NRAS to KD value for KRAS): SPR, GDP-bound NRAS wild-type protein vs GDP-bound KRAS wild-type protein
Chain of GDP-bound NRAS wild-type protein (P01111 whole entry): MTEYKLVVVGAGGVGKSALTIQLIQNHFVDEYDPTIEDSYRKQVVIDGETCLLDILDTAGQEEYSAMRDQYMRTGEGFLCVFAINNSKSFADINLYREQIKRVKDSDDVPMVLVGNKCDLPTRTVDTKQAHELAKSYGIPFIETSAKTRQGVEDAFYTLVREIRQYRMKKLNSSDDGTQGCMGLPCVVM

[2] = target: GDP-bound KRAS wild-type protein (Homo sapiens, UniProt P01116); experiment: Binding to KRAS by surface plasmon resonance (SPR), Single Cycle Kinetics; details: GDP-bound KRAS wild-type protein, read-out: KRAS KD
Chain of GDP-bound KRAS wild-type protein (P01116 whole entry): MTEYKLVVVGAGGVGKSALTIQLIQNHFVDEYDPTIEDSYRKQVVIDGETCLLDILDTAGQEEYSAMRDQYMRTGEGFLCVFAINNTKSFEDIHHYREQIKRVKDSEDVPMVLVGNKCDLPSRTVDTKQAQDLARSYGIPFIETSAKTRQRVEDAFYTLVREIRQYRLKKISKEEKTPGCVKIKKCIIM

[3] = target: GDP-bound HRAS wild-type protein (Homo sapiens, UniProt P01112); experiment: Binding to HRAS by surface plasmon resonance (SPR), Single Cycle Kinetics; details: for HRAS/KRAS (ratio of KD value with respect to HRAS to KD value with respect to KRAS) / HRAS/KRAS (ratio of KD value for HRAS to KD value for KRAS): SPR, GDP-bound HRAS wild-type protein vs GDP-bound KRAS wild-type protein
Chain of GDP-bound HRAS wild-type protein (P01112 whole entry): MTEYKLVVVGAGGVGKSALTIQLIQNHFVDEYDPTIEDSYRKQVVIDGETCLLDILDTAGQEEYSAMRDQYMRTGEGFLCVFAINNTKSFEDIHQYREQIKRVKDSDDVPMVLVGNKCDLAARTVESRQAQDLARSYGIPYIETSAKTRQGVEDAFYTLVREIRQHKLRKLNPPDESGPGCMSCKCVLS

[4] = SPR Single Cycle Kinetics, 1:1 binding model
[5] = SPR, Single Cycle Kinetics, 1:1 binding model

Compound	Kd ([2]; SPR, Single Cycle Kinetics) [nM]	NRAS/KRAS (ratio of KD value for NRAS to KD value for KRAS) [1]	HRAS/KRAS (ratio of KD value for HRAS to KD value for KRAS) [3]	other results
CCCN1C(=O)[C@@H]2CCN2C(=O)CN(C)C(=O)[C@H]([C@@H](C)CC)NC(=O)[C@H](CC(C)C)N(C)C(=O)C[C@@H](C(=O)N2CCOCC2)N(C)C(=O)[C@H](C2CCCC2)N(C)C(=O)[C@](C)(COC)NC(=O)[C@@H]2CCCN2C(=O)[C@H](CCc2cc(F)c(C(F)(F)F)c(F)c2)NC(=O)CN(C)C(=O)[C@@H]1Cc1ccc(C(F)(F)F)cc1 [PP0798] ([NMeL]I[Sar][Aze][NPrPhe(4-CF3)][Sar][hPhe(3,5-F2-4-CF3)]P[αMeS](Me)[NMeGly(cPent)][NMeD]-Morpholide; lactam N-11)	–	–	–	NRAS/KRAS (ratio of KD value with respect to NRAS to KD value with respect to KRAS) [1]: C (A compound having a KD ratio of 0.1 or more and less than 3 is denoted as C); Kd [2, 4]: 1.9 nM; HRAS/KRAS (ratio of KD value with respect to HRAS to KD value with respect to KRAS) [3]: B (a compound having 3 or more and less than 10 is denoted as B)
CCC[C@H]1C(=O)N[C@@H](C2CCCC2)C(=O)N(C)CC(=O)N(C)[C@H]2C/C=C\CCN(C2=O)[C@@H](Cc2ccc(C(F)(F)F)cc2)C(=O)N(C)CC(=O)N[C@@H](CCc2ccc(C(F)(F)F)c(Cl)c2)C(=O)N2CC3(CC3)C[C@H]2C(=O)NC2(CC(C)(C)C2)C(=O)N(C)[C@@H](CC(C)(C)C)C(=O)N(C)[C@H](C(=O)N(C)C)CC(=O)N1C [PP2981]	0.31	AA (a compound having 20 or more is denoted as AA)	A (a compound having 10 or more and less than 20 is denoted as A)	–
CCO[C@@H]1C[C@H]2C(=O)NC3(CCC3)C(=O)N(C)[C@@H](C3CCCC3)C(=O)N(C)[C@H](C(=O)N(C)C)CC(=O)N(C)[C@@H](CC)C(=O)N[C@@H]([C@@H](C)CC)C(=O)N(C)CC(=O)N(C)[C@H]3CC/C=C(/C)CN(C3=O)[C@@H](Cc3ccc(C(F)(F)F)cc3)C(=O)N(C)CC(=O)N[C@@H](CCc3cc(F)c(C(F)(F)F)c(F)c3)C(=O)N2C1 [PP1334]	–	–	–	NRAS/KRAS (ratio of KD value for NRAS to KD value for KRAS) ([1]; KD ratio class): B (a compound having 3 or more and less than 10 is denoted as B); Kd [2, 5]: 11 nM; HRAS/KRAS (ratio of KD value for HRAS to KD value for KRAS) ([3]; KD ratio class): B (a compound having 3 or more and less than 10 is denoted as B)
C#CC[C@H]1C(=O)N[C@@H]([C@@H](C)CC)C(=O)N(C)CC(=O)N(C)[C@H]2C/C=C\CCN(C2=O)[C@@H](Cc2ccc(C(F)(F)F)cc2)C(=O)N(C)CC(=O)N[C@@H](CCc2ccc(Cl)c(Cl)c2)C(=O)N2C[C@H](OCC)C[C@H]2C(=O)NC2(CC(C)(C)C2)C(=O)N(C)[C@@H](C2CCCC2)C(=O)N(C)[C@H](C(=O)N(C)CC)CC(=O)N1C [PP2843]	–	–	–	NRAS/KRAS (ratio of KD value with respect to GDP-bound NRAS wild-type protein to KD value with respect to KRAS) ([1]; SPR KD ratio NRAS/KRAS, class symbols): A (a compound having 10 or more and less than 20 is denoted as A); Kd [2, 4]: 0.26 nM; HRAS/KRAS (ratio of KD value with respect to GDP-bound HRAS wild-type protein to KD value with respect to KRAS) ([3]; SPR KD ratio HRAS/KRAS, class symbols): A (a compound having 10 or more and less than 20 is denoted as A)
CCO[C@@H]1C[C@H]2C(=O)NC3(CCC3)C(=O)N(C)[C@@H](C3CCCC3)C(=O)N(C)[C@H](C(=O)N3CCOCC3)CC(=O)N(C)[C@@H](COC)C(=O)N[C@@H]([C@@H](C)CC)C(=O)N(C)CC(=O)N(C)[C@H]3CCCCCN(C3=O)[C@@H](Cc3ccc(C(F)(F)F)cc3)C(=O)N(C)CC(=O)N[C@@H](CCc3ccc(C)cc3)C(=O)N2C1 [PP0850]	12	B (a compound having 3 or more and less than 10 is denoted as B)	B (a compound having 3 or more and less than 10 is denoted as B)	–
CC[C@H](C)[C@@H]1NC(=O)[C@H](CC(C)C)N(C)C(=O)C[C@@H](C(=O)N2CCOCC2)N(C)C(=O)[C@H](C2CCCC2)N(C)C(=O)C2(CCCC2)NC(=O)[C@@H]2CC(=O)CN2C(=O)[C@H](CCc2cc(F)c(C(F)(F)F)c(F)c2)NC(=O)CN(C)C(=O)[C@H](Cc2ccc(C(F)(F)F)cc2)N2CCCCC[C@@H](C2=O)N(C)C(=O)CN(C)C1=O [PP0493]	–	–	–	NRAS/KRAS (ratio of KD value with respect to NRAS to KD value with respect to KRAS) [1]: B (a compound having 3 or more and less than 10 is denoted as B); Kd [2, 4]: 2 nM; HRAS/KRAS (ratio of KD value with respect to HRAS to KD value with respect to KRAS) [3]: B (a compound having 3 or more and less than 10 is denoted as B)
CCO[C@@H]1C[C@H]2C(=O)NC3(CC(C)(C)C3)C(=O)N(C)[C@@H](C(CC)CC)C(=O)N(C)[C@H](C(=O)N(C)C)CC(=O)N(C)[C@@H](CC3CC3)C(=O)N[C@@H]([C@@H](C)CC)C(=O)N(C)CC(=O)N(C)[C@H]3C/C=C\CCN(C3=O)[C@@H](Cc3ccc(C(F)(F)F)cc3)C(=O)N(C)CC(=O)N[C@@H](CCc3ccc(C(F)(F)F)c(Cl)c3)C(=O)N2C1 [PP2124]	0.26	AA (a compound having 20 or more is denoted as AA)	A (a compound having 10 or more and less than 20 is denoted as A)	–
CCC[C@H]1C(=O)N[C@@H]([C@@H](C)CC)C(=O)N(C2CC2)CC(=O)N(C)[C@H]2C/C=C\CCN(C2=O)[C@@H](Cc2ccc(C(F)(F)F)cc2)C(=O)N(C)CC(=O)N[C@@H](CCc2ccc(C(F)(F)F)c(OC)c2)C(=O)N2C[C@H](OCC)C[C@H]2C(=O)N(C)C2(CCC2)C(=O)N(C)[C@@H](C2CCCC2)C(=O)N(C)[C@H](C(=O)N(C)C)CC(=O)N1C [PP2316, (2S,8S,12R,14S,20S,23S,27S,30S,36S,38Z)-20-cyclopentyl-32-cyclopropyl-12-ethoxy-8-[2-[3-methoxy-4-(trifluoromethyl)phenyl]ethyl]-N,N,4,16,19,22,26,35-octamethyl-30-[(1S)-1-methylpropyl]-3,6,9,15,18,21,25,28,31,34,42-undecaoxo-27-propyl-2-[[4-(trifluoromethyl)phenyl]methyl]spiro[1,4,7,10,16,19,22,26,29,32,35-undecazatricyclo[34.5.1.0^10,14]dotetracont-38-ene-17,1′-cyclobutane]-23-carboxamide]	0.12	A (a compound having 10 or more and less than 20 is denoted as A)	A (a compound having 10 or more and less than 20 is denoted as A)	–
CCO[C@@H]1C[C@H]2C(=O)NC3(CCC3)C(=O)N(C)[C@@H](C3CCCC3)C(=O)N(C)[C@H](C(=O)N(C)CCOC)CC(=O)N(C)[C@@H](CC3CC3)C(=O)N[C@@H]([C@@H](C)CC)C(=O)N(C)CC(=O)N(C)[C@H]3C/C=C\CCN(C3=O)[C@@H](Cc3ccc(C(F)(F)F)cc3)C(=O)N(C)CC(=O)N[C@@H](CCc3ccc(C(F)(F)F)c(OC)c3)C(=O)N2C1 [PP1327]	–	–	–	NRAS/KRAS (ratio of KD value for NRAS to KD value for KRAS) ([1]; KD ratio class): A (a compound having 10 or more and less than 20 is denoted as A); Kd [2, 5]: 0.11 nM; HRAS/KRAS (ratio of KD value for HRAS to KD value for KRAS) ([3]; KD ratio class): A (a compound having 10 or more and less than 20 is denoted as A)

The next lines start with results.

Kd ([2]; SPR, Single Cycle Kinetics) [nM]	Compound	NRAS/KRAS (ratio of KD value for NRAS to KD value for KRAS) [1]	HRAS/KRAS (ratio of KD value for HRAS to KD value for KRAS) [3]	other results
0.99	CCO[C@@H]1C[C@H]2C(=O)NC3(CCC3)C(=O)N(C)[C@@H](C3CCCC3)C(=O)N(C)[C@H](C(=O)N(C)C)CC(=O)N(C)[C@@H](Cc3cccc(C)c3)C(=O)N[C@@H]([C@@H](C)CC)C(=O)N(C)CC(=O)N(C)[C@H]3CCCCCN(C3=O)[C@@H](Cc3ccc(C(F)(F)F)cc3)C(=O)N(C)CC(=O)N[C@@H](CCc3cc(F)c(C(F)(F)F)c(F)c3)C(=O)N2C1 [PP0942]	B (a compound having 3 or more and less than 10 is denoted as B)	B (a compound having 3 or more and less than 10 is denoted as B)	–
3.4	CCO[C@@H]1C[C@H]2C(=O)NC3(CCC3)C(=O)N(C)[C@@H](C3CCCC3)C(=O)N(CC)[C@H](C(=O)N3CCOCC3)CC(=O)N(C)[C@@H](CCOC)C(=O)N[C@@H]([C@@H](C)CC)C(=O)N(C)CC(=O)N(C)[C@H]3CCCCCN(C3=O)[C@@H](Cc3ccc(C(F)(F)F)cc3)C(=O)N(C)CC(=O)N[C@@H](CCc3cc(F)c(C(F)(F)F)c(F)c3)C(=O)N2C1 [PP0947]	A (a compound having 10 or more and less than 20 is denoted as A)	A (a compound having 10 or more and less than 20 is denoted as A)	–
0.13	CCO[C@@H]1C[C@H]2C(=O)NC3(CCC3)C(=O)N(C)[C@@H](C3CCCCC3)C(=O)N(C)[C@H](C(=O)N(C)C)CC(=O)N(C)[C@@H](CC)C(=O)N[C@@H]([C@@H](C)CC)C(=O)N(C)CC(=O)N(C)[C@H]3C/C=C\CCN(C3=O)[C@@H](Cc3ccc(C(F)(F)F)cc3)C(=O)N(C)CC(=O)N[C@@H](CCc3cc(F)c(C(F)(F)F)c(F)c3)C(=O)N2C1 [PP1086, (2S,8S,12R,14S,20S,23S,27S,30S,36S,38Z)-20-cyclohexyl-8-[2-[3,5-difluoro-4-(trifluoromethyl)phenyl]ethyl]-12-ethoxy-27-ethyl-N,N,4,19,22,26,32,35-octamethyl-30-[(1S)-1-methylpropyl]-3,6,9,15,18,21,25,28,31,34,42-undecaoxo-2-[[4-(trifluoromethyl)phenyl]methyl]spiro[1,4,7,10,16,19,22,26,29,32,35-undecazatricyclo[34.5.1.0^10,14]dotetracont-38-ene-17,1′-cyclobutane]-23-carboxamide]	AA (a compound having 20 or more is denoted as AA)	A (a compound having 10 or more and less than 20 is denoted as A)	–
